Data on two compounds can be found in ChEMBL document CHEMBL6127143, “From Virtual Screens to Cellular Target Engagement: New Small Molecule Ligands for the Immune Checkpoint LAG-3” (ACS Med Chem Lett, 2024).

The data set deals with Raji. Description: Cytotoxicity against human Raji cells expressing human LAG3 assessed as reduction in cell viability incubated for 1 hrs by trypan blue staining based analysis. It counts as toxicity.

For `O=C(O)c1cccc(C(=O)NC2CCN(c3ccc(C(F)(F)F)cn3)CC2)c1`, the Activity result is listed as “Non-Toxic”.
On to `Cc1nc(C(F)(F)F)nc(-c2cc(NCCN(C)C)nc3[nH]ccc23)c1C`, for which the Activity entry was “Non-Toxic”.
